Assay results: EP0073100B1, “Beta-lactam compounds, their preparation and their use” (BEECHAM GROUP PLC, priority 1981, dated 1983)
In brackets after ≈: the same amount, converted by molar mass.

What was measured:
Test in all cases: MIC, growth inhibition in nutrient broth
Format in all cases: cell-based
[1] = system: E. coli; settings: Escherichia coli
[2] = system: Klebsiella aerogenes
[3] = system: Proteus mirabilis
[4] = system: S. typhimurium; settings: Salmonella enterica
[5] = system: B. subtilis; settings: Bacillus subtilis
[6] = system: Staph. aureus Oxford; settings: Staphylococcus aureus
[7] = system: Staph. aureus Russell; settings: Staphylococcus aureus, Staph. aureus Russell (β-lactamase-producing benylpenicillin-resistant strain)
[8] = system: Strep. faecalis; settings: Enterococcus faecalis
[9] = system: Strep. pyogenes; settings: Streptococcus pyogenes

## COC(=O)C1C[C@@H]2[C@H](NC(=O)COc3ccccc3)C(=O)N2[C@H]1C(=O)O (mixture of isomers) [compound 17, (2RS, 5RS, 6SR) 1-Aza-3-methoxycarbonyl-6-phenoxyacetamidobicyclo [3.2.0] -heptan-7-one-2-carboxylic acid]
[1]
  MIC: 250 µg/mL (≈ 690 µM)
[2]
  MIC: 250 µg/mL (≈ 690 µM)
[3]
  MIC: 62 µg/mL (≈ 171 µM)
[4]
  MIC: 250 µg/mL (≈ 690 µM)
[5]
  MIC: 2 µg/mL (≈ 5.52 µM)
[6]
  MIC: < 0.5 µg/mL
[7]
  MIC: 62 µg/mL (≈ 171 µM)
[8]
  MIC: 8 µg/mL (≈ 22.1 µM)
[9]
  MIC: < 10.5 µg/mL
